The values below come from ChEMBL document CHEMBL1145032, “Effects of heterocyclic aromatic substituents on binding affinities at two distinct sites of somatostatin receptors. Correlation with the electrostatic potential of the substituents” (J Med Chem, 2003).

The nature of data set [1]: pKHB (hydrogen bond basicity of the heterocycle) was determined.
Data set [2] can be described thus: pKa was determined. The class given is physicochemical.
The target in data set [3] is T1, Somatostatin receptor type 4 (Homo sapiens, UniProt P31391). Put plainly: Tested for binding affinity at human Somatostatin receptor type 4 using ([3-125I-Tyr11)]-SRIF-14 as the radioligand.
The target in another data set is Substance-P receptor (Homo sapiens, UniProt P25103). Put plainly: Binding affinity against Tachykinin receptor 1.
Data set [4] concerns the target T1, Somatostatin receptor type 4. Put plainly: Inhibitory concentration required against human Somatostatin receptor type 4.
Data set [5] has as its target Somatostatin receptor type 2 (Homo sapiens, UniProt P30874). Put plainly: Inhibitory concentration required against human Somatostatin receptor type 2.

By pKa is commonly meant the negative logarithm of the acid dissociation constant. In general, Ki refers to the dissociation constant of the complex between target and ligand, obtained from inhibition or displacement. One may read the IC50 as the concentration at which inhibition is half-maximal. The low end stands for greater potency in that assay, the high end for weaker potency in that assay.

T1 sequence (P31391 whole entry): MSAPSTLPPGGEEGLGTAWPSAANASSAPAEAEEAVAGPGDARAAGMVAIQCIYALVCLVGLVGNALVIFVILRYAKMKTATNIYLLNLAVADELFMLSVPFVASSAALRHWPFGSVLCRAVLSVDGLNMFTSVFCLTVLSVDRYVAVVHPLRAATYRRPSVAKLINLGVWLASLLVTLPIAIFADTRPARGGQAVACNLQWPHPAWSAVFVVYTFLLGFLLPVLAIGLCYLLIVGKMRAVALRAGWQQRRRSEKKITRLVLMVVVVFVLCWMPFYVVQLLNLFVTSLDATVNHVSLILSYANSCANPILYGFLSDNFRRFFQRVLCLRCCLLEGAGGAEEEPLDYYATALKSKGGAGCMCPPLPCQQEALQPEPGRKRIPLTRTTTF
Sequence of Substance-P receptor (P25103 whole entry): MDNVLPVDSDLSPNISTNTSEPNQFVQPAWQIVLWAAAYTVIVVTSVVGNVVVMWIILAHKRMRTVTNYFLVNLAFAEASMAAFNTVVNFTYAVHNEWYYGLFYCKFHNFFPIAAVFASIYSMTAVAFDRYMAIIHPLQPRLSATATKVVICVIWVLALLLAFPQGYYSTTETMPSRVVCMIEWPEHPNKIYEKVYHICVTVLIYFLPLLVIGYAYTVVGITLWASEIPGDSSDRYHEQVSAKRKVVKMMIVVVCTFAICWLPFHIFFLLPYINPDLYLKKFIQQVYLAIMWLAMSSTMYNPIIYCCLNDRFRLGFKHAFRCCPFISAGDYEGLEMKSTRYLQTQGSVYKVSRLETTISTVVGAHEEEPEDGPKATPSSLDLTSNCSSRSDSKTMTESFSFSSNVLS
Sequence of Somatostatin receptor type 2 (P30874 whole entry): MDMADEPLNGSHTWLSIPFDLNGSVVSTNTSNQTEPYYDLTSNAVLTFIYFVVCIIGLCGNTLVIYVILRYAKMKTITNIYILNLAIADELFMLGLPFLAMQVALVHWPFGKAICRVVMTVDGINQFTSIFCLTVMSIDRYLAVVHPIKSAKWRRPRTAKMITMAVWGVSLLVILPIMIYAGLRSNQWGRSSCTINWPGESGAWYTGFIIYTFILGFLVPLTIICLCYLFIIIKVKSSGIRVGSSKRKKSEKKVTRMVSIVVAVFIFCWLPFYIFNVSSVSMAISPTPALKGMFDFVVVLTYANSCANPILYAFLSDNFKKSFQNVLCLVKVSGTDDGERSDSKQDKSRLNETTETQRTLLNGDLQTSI

On to `NCCCCCOC[C@H]1O[C@@H](OCCc2c[nH]c3ccccc23)[C@H](OCc2ccccc2)[C@@H](OCc2ccccc2)[C@@H]1OCc1ccncc1`, for which the pKHB in data set [1] turned out to be 1.86. Further, the pKa in data set [2] stood at 5.2. The same compound had a Ki in data set [3] of 570 nM.

The compound `NCCCCCOC[C@H]1O[C@@H](OCCc2c[nH]c3ccccc23)[C@H](OCc2ccccc2)[C@@H](OCc2ccccc2)[C@@H]1OCc1cccnc1` displayed a pKHB in data set [1] of 1.86. For the same compound, the pKa in data set [2] was 5.2. For the same compound, affinity in data set [3] was put at a Ki of 360 nM.

`CC(=O)NCCCCCOC[C@H]1O[C@@H](OCCc2c[nH]c3ccccc23)[C@H](OCc2ccccc2)[C@@H](OCc2ccccc2)[C@@H]1O` had a Ki on Substance-P receptor of 27 nM.

Compound `NCCCCCOC[C@H]1O[C@@H](OCCc2c[nH]c3ccccc23)[C@H](OCc2ccccc2)[C@@H](OCc2ccccc2)[C@@H]1OCc1ccc(Cl)nc1` had a pKa in data set [2] of 0.5. The same compound came in with a Ki in data set [3] of 1200 nM.

Take `NCCCCCOC[C@H]1O[C@@H](OCCc2c[nH]c3ccccc23)[C@H](OCc2ccccc2)[C@@H](OCc2ccccc2)[C@@H]1OCc1ccc(F)nc1`: in data set [1], the pKHB turned out to be 0.95. The pKa in data set [2] was -0.4. For the same compound, the Ki in data set [3] is 680 nM.

Regarding `NCCCCCOC[C@H]1O[C@@H](OCCc2c[nH]c3ccccc23)[C@H](OCc2ccccc2)[C@@H](OCc2ccccc2)[C@@H]1OCc1ccccc1`, the figures for the Ki (in data set [3]; at Substance-P receptor) were 1650 nM and 150 nM, respectively.

Consider `NCCCCCOC[C@@H]1O[C@H](OCCc2c[nH]c3ccccc23)[C@H](OCc2cnc[nH]2)C(OCc2ccccc2)[C@H]1OCCc1cccnc1` (single isomer, unassigned; (+)), for which, in data set [4], half-maximal inhibition (IC50) required 800 nM.

For `NCCCCCOC[C@@H]1O[C@H](OCCc2c[nH]c3ccccc23)[C@H](OCc2cnc[nH]2)C(OCc2ccccc2)[C@H]1OCc1ccccc1` (single isomer, unassigned; (+)), in data set [3], the Ki was determined as 100 nM. Further, the results for the IC50 in data set [4] and in data set [5] were 100 nM and 800 nM, respectively.

Turning to `NCCCCCOC[C@H]1O[C@@H](OCCc2c[nH]c3ccccc23)[C@H](OCc2ccccc2)[C@@H](OCc2ccccc2)[C@@H]1OCc1ccccn1`, the pKHB in data set [1] worked out at 1.86. The compound further came in with a pKa in data set [2] of 5.2. Besides, in data set [3], the Ki came to 890 nM.

The compound `NCCCCCOC[C@H]1O[C@@H](OCCc2c[nH]c3ccccc23)[C@H](OCc2ccccc2)[C@@H](OCc2ccccc2)[C@@H]1OCc1c[nH]cn1` yielded a pKHB in data set [1] of 2.03. Also, in data set [2], the pKa is 7.2. The same compound gave a Ki in data set [3] of 1040 nM.

In the case of `Cc1ccc(CO[C@H]2[C@H](OCc3ccccc3)[C@@H](OCc3ccccc3)[C@H](OCCc3c[nH]c4ccccc34)O[C@@H]2COCCCCCN)cn1`, the pKHB in data set [1] worked out at 1.05. Also, the pKa in data set [2] amounted to 6.1. In data set [3], this compound came in with an inhibition constant Ki of 1260 nM.

In turn, `NCCCCCOC[C@H]1O[C@@H](OCCc2c[nH]c3ccccc23)[C@H](OCc2ccccc2)[C@@H](OCc2ccccc2)[C@@H]1OCc1cnccn1` gave a pKHB in data set [1] of 1.95. This compound also had a pKa in data set [2] of 0.7. In data set [3], this compound displayed a Ki of 260 nM.

In data set [3], `NCCCCCOC[C@H]1O[C@@H](OCCc2c[nH]c3ccccc23)[C@H](OCc2cnc[nH]2)[C@@H](OCc2ccccc2)[C@@H]1OCc1cccnc1` yielded a Ki of 53 nM. Moreover, the values for the IC50 in data set [4] and in data set [5] were 53 nM and 2250 nM, respectively.
